Key:
Assay type in all cases: biochemical
AKT-3 = AKT-3 (Homo sapiens, UniProt Q9Y243); test: AKT-3 inhibition assay (standard coupled enzyme assay); details: 170 μM ATP, 200 μM peptide, 45 nM AKT, 30° C.
PDK-1 = target: T1, PDK-1 (Homo sapiens, UniProt O15530); test: PDK-1 inhibition assay (radioactive-phosphate incorporation); details: 40 μM ATP, 65 μM PDKtide, 25 nM PDK-1, 30° C.
T1 sequence (O15530 1-556): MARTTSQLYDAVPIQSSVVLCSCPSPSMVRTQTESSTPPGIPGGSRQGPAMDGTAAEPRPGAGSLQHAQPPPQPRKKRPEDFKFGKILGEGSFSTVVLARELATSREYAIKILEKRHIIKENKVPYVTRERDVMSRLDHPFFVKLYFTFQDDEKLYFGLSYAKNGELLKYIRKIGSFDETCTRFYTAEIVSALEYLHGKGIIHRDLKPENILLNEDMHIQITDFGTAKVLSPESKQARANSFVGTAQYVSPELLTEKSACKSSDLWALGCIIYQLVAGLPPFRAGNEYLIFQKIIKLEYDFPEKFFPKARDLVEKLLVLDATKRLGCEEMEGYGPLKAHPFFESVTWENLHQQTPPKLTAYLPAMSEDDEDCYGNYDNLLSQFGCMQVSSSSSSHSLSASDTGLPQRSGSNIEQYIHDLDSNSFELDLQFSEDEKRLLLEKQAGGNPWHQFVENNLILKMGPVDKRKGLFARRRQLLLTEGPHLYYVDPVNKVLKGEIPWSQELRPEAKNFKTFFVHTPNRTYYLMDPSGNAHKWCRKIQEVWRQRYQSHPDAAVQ

PKA = PKA (Homo sapiens, UniProt P17612); test: PKA inhibition assay (standard coupled enzyme assay); details: 50 μM ATP, 80 μM Kemptide, 18 nM PKA, 30° C.
Experimental: Compounds were screened for their ability to inhibit PKA using a standard coupled enzyme assay (Fox et al., Protein Sci., (1998) 7, 2249). Assays were carried out in a mixture of 100 mM HEPES 7.5, 10 mM MgCl2, 25 mM NaCl, 1 mM DTT and 3% DMSO. Final substrate concentrations in the assay were 50 μM ATP (Sigma Chemicals) and 80 μM peptide (Kemptide, American Peptide, Sunnyvale, Calif.). Assays were carried out at 30° C. and 18 nM PKA. Final concentrations of the components of the coupled enzyme system were 2.5 mM phosphoenolpyruvate, 300 μM NADH, 30 μg/ml pyruvate kinase and 10 μg/ml lactate dehydrogenase.
An assay stock buffer solution was prepared containing all of the reagents listed above, with the exception of ATP, and the test compound of interest. 55 μl of the stock solution was placed in a 96 well plate followed by addition of 2 μl of DMSO stock containing serial dilutions of the test compound (typically starting from a final concentration of 5 μM). The plate was preincubated for 10 minutes at 30° C. and the reaction initiated by addition of 5 μl of ATP (final concentration 50 μM). Initial reaction rates were determined with a Molecular Devices SpectraMax Plus plate reader over a 15 minute time course. IC50 and Ki data were calculated from non-linear regression analysis using the Prism software package (GraphPad Prism version 3.0a for Macintosh, GraphPad Software, San Diego Calif., USA).

AKT-3, sequence (Q9Y243 whole entry): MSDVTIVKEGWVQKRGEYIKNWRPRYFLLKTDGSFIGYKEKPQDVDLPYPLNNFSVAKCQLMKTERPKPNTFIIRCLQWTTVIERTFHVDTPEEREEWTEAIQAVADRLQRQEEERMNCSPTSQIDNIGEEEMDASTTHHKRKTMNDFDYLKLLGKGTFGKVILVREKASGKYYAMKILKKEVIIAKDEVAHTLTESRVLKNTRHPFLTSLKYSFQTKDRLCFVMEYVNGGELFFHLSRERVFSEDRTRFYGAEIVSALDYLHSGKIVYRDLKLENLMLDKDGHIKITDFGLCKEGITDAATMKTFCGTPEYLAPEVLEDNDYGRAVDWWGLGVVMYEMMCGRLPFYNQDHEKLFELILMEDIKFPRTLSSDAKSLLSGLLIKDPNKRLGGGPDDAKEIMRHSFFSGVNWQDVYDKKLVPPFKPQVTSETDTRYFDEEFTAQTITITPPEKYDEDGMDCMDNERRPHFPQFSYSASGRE

Ki (AKT-3) [nM] | Ki (PDK-1) [nM] | Ki (PKA) [nM] | SMILES
< 1000 | < 1000 | < 1000 | N#Cc1ccc(C(=O)Nc2n[nH]c3ccc(NC(=O)C(CCN)c4ccc(Cl)c(Cl)c4)cc23)cc1 (stereo not drawn) [Compound I-174]
< 1000 | 1000 to 3000 | < 1000 | N#Cc1cccc(C(=O)Nc2n[nH]c3ccc(NC(=O)C(CCN)c4ccc(Cl)c(Cl)c4)cc23)c1 (stereo not drawn) [Compound I-175]
< 1000 | 1000 to 3000 | < 1000 | NCC[C@@H](C(=O)Nc1ccc2[nH]nc(NC(=O)c3cccc(Cl)c3)c2c1)c1cccc(Cl)c1F [Compound I-177]
< 1000 | > 3000 | < 1000 | NCCC(C(=O)Nc1ccc2[nH]nc(NC(=O)c3cccc(Oc4ccccc4)c3)c2c1)c1ccc(Cl)c(Cl)c1 (stereo not drawn) [Compound I-178]
< 1000 | < 1000 | < 1000 | NCCC(C(=O)Nc1ccc2[nH]nc(NC(=O)c3cccc(F)c3)c2c1)c1ccc(Cl)c(Cl)c1 (stereo not drawn) [Compound I-179]
< 1000 | 1000 to 3000 | < 1000 | NCCC(C(=O)Nc1ccc2[nH]nc(NC(=O)c3ccccc3Cl)c2c1)c1ccc(Cl)c(Cl)c1 (stereo not drawn) [Compound I-180]
< 1000 | < 1000 | < 1000 | CCOc1cccc(C(=O)Nc2n[nH]c3ccc(NC(=O)C(CCN)c4ccc(Cl)c(Cl)c4)cc23)c1 (stereo not drawn) [Compound I-181]
< 1000 | < 1000 | < 1000 | NCCC(C(=O)Nc1ccc2[nH]nc(NC(=O)c3ccc(Cl)cc3)c2c1)c1ccc(Cl)c(Cl)c1 (stereo not drawn) [Compound I-182]
< 1000 | > 3000 | < 1000 | NCCC(C(=O)Nc1ccc2[nH]nc(NC(=O)c3ccc(Cl)c(Cl)c3)c2c1)c1ccc(Cl)c(Cl)c1 (stereo not drawn) [Compound I-183]
< 1000 | > 3000 | < 1000 | NCCC(C(=O)Nc1ccc2[nH]nc(NC(=O)c3cc(Cl)cc(Cl)c3)c2c1)c1ccc(Cl)c(Cl)c1 (stereo not drawn) [Compound I-184]
< 1000 | 1000 to 3000 | < 1000 | Cc1cccc(C(=O)Nc2n[nH]c3ccc(NC(=O)C(CCN)c4ccc(Cl)c(Cl)c4)cc23)c1 (stereo not drawn) [Compound I-185]
< 1000 | 1000 to 3000 | < 1000 | NCCC(C(=O)Nc1ccc2[nH]nc(NC(=O)c3cccc(Br)c3)c2c1)c1ccc(Cl)c(Cl)c1 (stereo not drawn) [Compound I-186]
< 1000 | 1000 to 3000 | < 1000 | CCc1ccc(C(=O)Nc2n[nH]c3ccc(NC(=O)C(CCN)c4ccc(Cl)c(Cl)c4)cc23)cc1 (stereo not drawn) [Compound I-187]
< 1000 | 1000 to 3000 | < 1000 | CCCc1ccc(C(=O)Nc2n[nH]c3ccc(NC(=O)C(CCN)c4ccc(Cl)c(Cl)c4)cc23)cc1 (stereo not drawn) [Compound I-188]
< 1000 | < 1000 | < 1000 | NCCC(C(=O)Nc1ccc2[nH]nc(NC(=O)c3ccc(Br)cc3)c2c1)c1ccc(Cl)c(Cl)c1 (stereo not drawn) [Compound I-189]
< 1000 | < 1000 | < 1000 | NCCC(C(=O)Nc1ccc2[nH]nc(NC(=O)c3ccncc3)c2c1)c1ccc(Cl)c(Cl)c1 (stereo not drawn) [Compound I-193]
< 1000 | < 1000 | < 1000 | NCCC(C(=O)Nc1ccc2[nH]nc(NC(=O)c3cccnc3)c2c1)c1ccc(Cl)c(Cl)c1 (stereo not drawn) [Compound I-194]
< 1000 | < 1000 | < 1000 | NCCC(C(=O)Nc1ccc2[nH]nc(NC(=O)c3ccccn3)c2c1)c1ccc(Cl)c(Cl)c1 (stereo not drawn) [Compound I-195]
< 1000 | > 3000 | < 1000 | C=Cc1cccc(C(=O)Nc2n[nH]c3ccc(NC(=O)C(CCN)c4ccc(Cl)c(Cl)c4)cc23)c1 (stereo not drawn) [Compound I-196]
< 1000 | < 1000 | < 1000 | NCCC(C(=O)Nc1ccc2[nH]nc(NC(=O)c3cccc(CN)c3)c2c1)c1ccc(Cl)c(Cl)c1 (stereo not drawn) [Compound I-197]
< 1000 | < 1000 | < 1000 | NCCC(C(=O)Nc1ccc2[nH]nc(NC(=O)c3ccc(CN)cc3)c2c1)c1ccc(Cl)c(Cl)c1 (stereo not drawn) [Compound I-198]
